Where “and” joins values, the source holds several entries; their conditions need not be identical. Equal entries are not always repeated. Where two headings read alike, the source gives them in different places.
Assays:
[1] = system: Influenza A H3N2 virus (H3N2); format: cell-based; settings: for CPE test, virus replication in cell wells (wells 1-10) / CPE test, virus replication in cell wells 1-10: 5 mM EGCG + H3N2 virus; for inactivation efficiency against the virus / average inactivation efficiency against virus: 5 mM EGCG, H3N2 virus; for inactivation efficiency against the virus: single experiment
[2] = system: Influenza B virus (B/Lee); test: Inactivation efficiency against influenza B virus B/Lee strain (residual TCID50 on MDCK cells); format: cell-based; settings: for average inactivation efficiency against virus: B/Lee virus, two experiments

O=C(O[C@@H]1Cc2c(O)cc(O)cc2O[C@@H]1c1cc(O)c(O)c(O)c1)c1cc(O)c(O)c(O)c1 [EGCG, Epigallocatechin gallate]
97.49% and 98.74%: inactivation efficiency against the virus ([1]; 5 minutes)
98.74% and 96.84%: inactivation efficiency against the virus ([1]; 1 minute)
− and +: CPE test, virus replication in cell wells 1-10 ([1]; 5 minute, first experiment, dilution factor 10^4) | CPE test, virus replication in cell wells 1-10 ([1]; 5 minute, first experiment, dilution factor 10^5) | CPE test (virus replication in the cell wells) ([2]; 0.2 mM EGCG + B/Lee virus, 1 minute, first experiment, dilution factor 10^5, wells 1-10) | CPE test (virus replication in the cell wells) ([2]; 0.2 mM EGCG + B/Lee virus, 1 minute, first experiment, dilution factor 10^6, wells 1-10) | CPE test (virus replication in the cell wells) ([2]; 0.2 mM EGCG + B/Lee virus, 1 minute, second experiment, dilution factor 10^6, wells 1-10) | CPE test (virus replication in the cell wells) ([2]; 1 mM EGCG + B/Lee virus, 1 minute, second experiment, dilution factor 10^6, wells 1-10) | CPE test (virus replication in the cell wells) ([2]; 5 mM EGCG + B/Lee virus, 1 minute, second experiment, dilution factor 10^5, wells 1-10) | CPE test (virus replication in the cell wells) ([2]; 5 mM EGCG + B/Lee virus, 5 minute, first experiment, dilution factor 10^6, wells 1-10) | CPE test (virus replication in the cell wells) ([2]; 5 mM EGCG + B/Lee virus, 5 minute, first experiment, dilution factor 10^7, wells 1-10) | CPE test per cell well ([2]; 5 mM EGCG + B/Lee virus, 5 minute, second experiment, dilution factor 10^5, wells 1-10)
98.11%: average inactivation efficiency against virus ([1]; 1 minute, three experiments)
52.43%: average inactivation efficiency against virus ([2]; 5 mM EGCG, 1 minute)
36.90%: average inactivation efficiency against virus ([2]; 5 mM EGCG, 5 minutes)
18.45%: average inactivation efficiency against virus ([2]; 0.2 mM EGCG, 1 minute) | average inactivation efficiency against virus ([2]; 1 mM EGCG, 5 minutes)
−: CPE test, virus replication in cell wells (wells 1-10) ([1]; 1 minute, second experiment, dilution factor 10^7) | CPE test, virus replication in cell wells (wells 1-10) ([1]; 1 minute, second experiment, dilution factor 10^8) | CPE test, virus replication in cell wells 1-10 ([1]; 1 minute, third experiment, dilution factor 10^4) | CPE test, virus replication in cell wells 1-10 ([1]; 1 minute, third experiment, dilution factor 10^5) | CPE test, virus replication in cell wells 1-10 ([1]; 1 minute, third experiment, dilution factor 10^6) | CPE test, virus replication in cell wells 1-10 ([1]; 1 minute, third experiment, dilution factor 10^7) | CPE test, virus replication in cell wells 1-10 ([1]; 1 minute, third experiment, dilution factor 10^8) | CPE test, virus replication in cell wells 1-10 ([1]; 5 minute, first experiment, dilution factor 10^6) | CPE test, virus replication in cell wells 1-10 ([1]; 5 minute, first experiment, dilution factor 10^7) | CPE test, virus replication in cell wells 1-10 ([1]; 5 minute, first experiment, dilution factor 10^8) | CPE test, virus replication in cell wells 1-10 ([1]; 5 minute, second experiment, dilution factor 10^4) | CPE test, virus replication in cell wells 1-10 ([1]; 5 minute, second experiment, dilution factor 10^5) | CPE test, virus replication in cell wells 1-10 ([1]; 5 minute, second experiment, dilution factor 10^6) | CPE test, virus replication in cell wells 1-10 ([1]; 5 minute, second experiment, dilution factor 10^7) | CPE test, virus replication in cell wells 1-10 ([1]; 5 minute, second experiment, dilution factor 10^8) | CPE test (virus replication in the cell wells) ([2]; 0.2 mM EGCG + B/Lee virus, 1 minute, first experiment, dilution factor 10^7, wells 1-10) | CPE test (virus replication in the cell wells) ([2]; 0.2 mM EGCG + B/Lee virus, 1 minute, first experiment, dilution factor 10^8, wells 1-10) | CPE test (virus replication in the cell wells) ([2]; 0.2 mM EGCG + B/Lee virus, 1 minute, second experiment, dilution factor 10^7, wells 1-10) | CPE test (virus replication in the cell wells) ([2]; 0.2 mM EGCG + B/Lee virus, 1 minute, second experiment, dilution factor 10^8, wells 1-10) | CPE test (virus replication in the cell wells) ([2]; 1 mM EGCG + B/Lee virus, 1 minute, first experiment, dilution factor 10^6, wells 1-10) | CPE test (virus replication in the cell wells) ([2]; 1 mM EGCG + B/Lee virus, 1 minute, first experiment, dilution factor 10^7, wells 1-10) | CPE test (virus replication in the cell wells) ([2]; 1 mM EGCG + B/Lee virus, 1 minute, first experiment, dilution factor 10^8, wells 1-10) | CPE test (virus replication in the cell wells) ([2]; 1 mM EGCG + B/Lee virus, 1 minute, second experiment, dilution factor 10^7, wells 1-10) | CPE test (virus replication in the cell wells) ([2]; 1 mM EGCG + B/Lee virus, 1 minute, second experiment, dilution factor 10^8, wells 1-10) | CPE test (virus replication in the cell wells) ([2]; 1 mM EGCG + B/Lee virus, 5 minute, first experiment, dilution factor 10^6, wells 1-10) | CPE test (virus replication in the cell wells) ([2]; 1 mM EGCG + B/Lee virus, 5 minute, first experiment, dilution factor 10^7, wells 1-10) | CPE test (virus replication in the cell wells) ([2]; 1 mM EGCG + B/Lee virus, 5 minute, first experiment, dilution factor 10^8, wells 1-10) | CPE test per cell well ([2]; 1 mM EGCG + B/Lee virus, 5 minute, second experiment, dilution factor 10^6, wells 1-10) | CPE test per cell well ([2]; 1 mM EGCG + B/Lee virus, 5 minute, second experiment, dilution factor 10^7, wells 1-10) | CPE test per cell well ([2]; 1 mM EGCG + B/Lee virus, 5 minute, second experiment, dilution factor 10^8, wells 1-10) | CPE test (virus replication in the cell wells) ([2]; 5 mM EGCG + B/Lee virus, 1 minute, first experiment, dilution factor 10^6, wells 1-10) | CPE test (virus replication in the cell wells) ([2]; 5 mM EGCG + B/Lee virus, 1 minute, first experiment, dilution factor 10^7, wells 1-10) | CPE test (virus replication in the cell wells) ([2]; 5 mM EGCG + B/Lee virus, 1 minute, first experiment, dilution factor 10^8, wells 1-10) | CPE test (virus replication in the cell wells) ([2]; 5 mM EGCG + B/Lee virus, 1 minute, second experiment, dilution factor 10^6, wells 1-10) | CPE test (virus replication in the cell wells) ([2]; 5 mM EGCG + B/Lee virus, 1 minute, second experiment, dilution factor 10^7, wells 1-10) | CPE test (virus replication in the cell wells) ([2]; 5 mM EGCG + B/Lee virus, 1 minute, second experiment, dilution factor 10^8, wells 1-10) | CPE test (virus replication in the cell wells) ([2]; 5 mM EGCG + B/Lee virus, 5 minute, first experiment, dilution factor 10^8, wells 1-10) | CPE test per cell well ([2]; 5 mM EGCG + B/Lee virus, 5 minute, second experiment, dilution factor 10^6, wells 1-10) | CPE test per cell well ([2]; 5 mM EGCG + B/Lee virus, 5 minute, second experiment, dilution factor 10^7, wells 1-10) | CPE test per cell well ([2]; 5 mM EGCG + B/Lee virus, 5 minute, second experiment, dilution factor 10^8, wells 1-10)
+ and −: CPE test per cell well ([2]; 1 mM EGCG + B/Lee virus, 5 minute, second experiment, dilution factor 10^5, wells 1-10) | CPE test (virus replication in the cell wells) ([2]; 5 mM EGCG + B/Lee virus, 5 minute, first experiment, dilution factor 10^4, wells 1-10) | CPE test (virus replication in the cell wells) ([2]; 5 mM EGCG + B/Lee virus, 5 minute, first experiment, dilution factor 10^5, wells 1-10)
98.32%: average inactivation efficiency against virus ([1]; 5 minutes, two experiments)
28.74%: average inactivation efficiency against virus ([2]; 1 mM EGCG, 1 minute)
+: CPE test, virus replication in cell wells 1-10 ([1]; 5 minute, second experiment, dilution factor 10^3) | CPE test (virus replication in the cell wells) ([2]; 0.2 mM EGCG + B/Lee virus, 1 minute, first experiment, dilution factor 10^1, wells 1-10) | CPE test (virus replication in the cell wells) ([2]; 0.2 mM EGCG + B/Lee virus, 1 minute, first experiment, dilution factor 10^2, wells 1-10) | CPE test (virus replication in the cell wells) ([2]; 0.2 mM EGCG + B/Lee virus, 1 minute, first experiment, dilution factor 10^3, wells 1-10) | CPE test (virus replication in the cell wells) ([2]; 0.2 mM EGCG + B/Lee virus, 1 minute, first experiment, dilution factor 10^4, wells 1-10) | CPE test (virus replication in the cell wells) ([2]; 0.2 mM EGCG + B/Lee virus, 1 minute, second experiment, dilution factor 10^1, wells 1-10) | CPE test (virus replication in the cell wells) ([2]; 0.2 mM EGCG + B/Lee virus, 1 minute, second experiment, dilution factor 10^2, wells 1-10) | CPE test (virus replication in the cell wells) ([2]; 0.2 mM EGCG + B/Lee virus, 1 minute, second experiment, dilution factor 10^3, wells 1-10) | CPE test (virus replication in the cell wells) ([2]; 0.2 mM EGCG + B/Lee virus, 1 minute, second experiment, dilution factor 10^4, wells 1-10) | CPE test (virus replication in the cell wells) ([2]; 0.2 mM EGCG + B/Lee virus, 1 minute, second experiment, dilution factor 10^5, wells 1-10) | CPE test (virus replication in the cell wells) ([2]; 1 mM EGCG + B/Lee virus, 1 minute, first experiment, dilution factor 10^3, wells 1-10) | CPE test (virus replication in the cell wells) ([2]; 1 mM EGCG + B/Lee virus, 1 minute, first experiment, dilution factor 10^4, wells 1-10) | CPE test (virus replication in the cell wells) ([2]; 1 mM EGCG + B/Lee virus, 1 minute, first experiment, dilution factor 10^5, wells 1-10) | CPE test (virus replication in the cell wells) ([2]; 1 mM EGCG + B/Lee virus, 1 minute, second experiment, dilution factor 10^3, wells 1-10) | CPE test (virus replication in the cell wells) ([2]; 1 mM EGCG + B/Lee virus, 1 minute, second experiment, dilution factor 10^4, wells 1-10) | CPE test (virus replication in the cell wells) ([2]; 1 mM EGCG + B/Lee virus, 1 minute, second experiment, dilution factor 10^5, wells 1-10) | CPE test (virus replication in the cell wells) ([2]; 1 mM EGCG + B/Lee virus, 5 minute, first experiment, dilution factor 10^2, wells 1-10) | CPE test (virus replication in the cell wells) ([2]; 1 mM EGCG + B/Lee virus, 5 minute, first experiment, dilution factor 10^3, wells 1-10) | CPE test (virus replication in the cell wells) ([2]; 1 mM EGCG + B/Lee virus, 5 minute, first experiment, dilution factor 10^4, wells 1-10) | CPE test (virus replication in the cell wells) ([2]; 1 mM EGCG + B/Lee virus, 5 minute, first experiment, dilution factor 10^5, wells 1-10) | CPE test per cell well ([2]; 1 mM EGCG + B/Lee virus, 5 minute, second experiment, dilution factor 10^1, wells 1-10) | CPE test per cell well ([2]; 1 mM EGCG + B/Lee virus, 5 minute, second experiment, dilution factor 10^2, wells 1-10) | CPE test per cell well ([2]; 1 mM EGCG + B/Lee virus, 5 minute, second experiment, dilution factor 10^3, wells 1-10) | CPE test per cell well ([2]; 1 mM EGCG + B/Lee virus, 5 minute, second experiment, dilution factor 10^4, wells 1-10) | CPE test (virus replication in the cell wells) ([2]; 5 mM EGCG + B/Lee virus, 1 minute, first experiment, dilution factor 10^4, wells 1-10) | CPE test (virus replication in the cell wells) ([2]; 5 mM EGCG + B/Lee virus, 1 minute, first experiment, dilution factor 10^5, wells 1-10) | CPE test (virus replication in the cell wells) ([2]; 5 mM EGCG + B/Lee virus, 1 minute, second experiment, dilution factor 10^4, wells 1-10) | CPE test per cell well ([2]; 5 mM EGCG + B/Lee virus, 5 minute, second experiment, dilution factor 10^4, wells 1-10)

— US20240238242A1, “EGCG buccal tablet and use thereof” (priority 2023, published 2024)
